Assay results from the NIST ThermoML archive (doi:10.1016/j.tca.2011.08.002).

Columns and labels:
[1] = refractive index (Na D-line) (dimensionless); xn = mol fraction of the nth substance listed; details: 101 kPa, Liquid, Standard Abbe refractometry
[2] = xn = mol fraction of the nth substance listed; details: 101 kPa, Liquid, Vibrating tube method

C1CCC(NC2CCCCC2)CC1 [N-cyclohexylcyclohexanamine] + CCC(C)O
Details | mass density, [2] [kg/m3] | refractive index, [1]
288.15 K, x2 = 0 | 915.498 | 1.48636
288.15 K, x2 = 0.0996 | 912.349 | 1.48336
288.15 K, x2 = 0.1998 | 908.349 | 1.47951
288.15 K, x2 = 0.3 | 903.446 | 1.47497
288.15 K, x2 = 0.3998 | 897.469 | 1.46961
288.15 K, x2 = 0.5011 | 889.89 | 1.4629
288.15 K, x2 = 0.599 | 880.802 | 1.45516
288.15 K, x2 = 0.6999 | 869.241 | 1.44554
288.15 K, x2 = 0.7998 | 854.484 | 1.43365
288.15 K, x2 = 0.8996 | 835.606 | 1.41884
288.15 K, x2 = 0.9494 | 823.99 | 1.41002
293.15 K, x2 = 0 | 911.705 | 1.48416
293.15 K, x2 = 0.0996 | 908.493 | 1.48112
293.15 K, x2 = 0.1998 | 904.427 | 1.47724
293.15 K, x2 = 0.3 | 899.455 | 1.47268
293.15 K, x2 = 0.3998 | 893.416 | 1.46731
293.15 K, x2 = 0.5011 | 885.775 | 1.46057
293.15 K, x2 = 0.599 | 876.639 | 1.45283
293.15 K, x2 = 0.6999 | 865.057 | 1.44322
293.15 K, x2 = 0.7998 | 850.31 | 1.43136
293.15 K, x2 = 0.8996 | 831.493 | 1.41658
293.15 K, x2 = 0.9494 | 819.925 | 1.40783
298.15 K, x2 = 0 | 907.923 | 1.48198
298.15 K, x2 = 0.0996 | 904.633 | 1.47892
298.15 K, x2 = 0.1998 | 900.497 | 1.47499
298.15 K, x2 = 0.3 | 895.457 | 1.47041
298.15 K, x2 = 0.3998 | 889.353 | 1.465
298.15 K, x2 = 0.5011 | 881.646 | 1.45825
298.15 K, x2 = 0.599 | 872.452 | 1.4505
298.15 K, x2 = 0.6999 | 860.838 | 1.44088
298.15 K, x2 = 0.7998 | 846.088 | 1.42906
298.15 K, x2 = 0.8996 | 827.317 | 1.41432
298.15 K, x2 = 0.9494 | 815.784 | 1.40558
303.15 K, x2 = 0 | 904.144 | 1.47978
303.15 K, x2 = 0.0996 | 900.775 | 1.47667
303.15 K, x2 = 0.1998 | 896.561 | 1.47273
303.15 K, x2 = 0.3 | 891.448 | 1.46813
303.15 K, x2 = 0.3998 | 885.272 | 1.4627
303.15 K, x2 = 0.5011 | 877.495 | 1.45591
303.15 K, x2 = 0.599 | 868.239 | 1.44817
303.15 K, x2 = 0.6999 | 856.586 | 1.43852
303.15 K, x2 = 0.7998 | 841.819 | 1.42671
303.15 K, x2 = 0.8996 | 823.072 | 1.412
303.15 K, x2 = 0.9494 | 811.566 | 1.40329
308.15 K, x2 = 0 | 900.372 | 1.47761
308.15 K, x2 = 0.0996 | 896.914 | 1.47445
308.15 K, x2 = 0.1998 | 892.619 | 1.47046
308.15 K, x2 = 0.3 | 887.426 | 1.4658
308.15 K, x2 = 0.3998 | 881.174 | 1.46034
308.15 K, x2 = 0.5011 | 873.319 | 1.45358
308.15 K, x2 = 0.599 | 863.994 | 1.44577
308.15 K, x2 = 0.6999 | 852.289 | 1.43617
308.15 K, x2 = 0.7998 | 837.495 | 1.42437
308.15 K, x2 = 0.8996 | 818.755 | 1.40968
308.15 K, x2 = 0.9494 | 807.262 | 1.40094
313.15 K, x2 = 0 | 896.608 | 1.47562
313.15 K, x2 = 0.0996 | 893.053 | 1.4722
313.15 K, x2 = 0.1998 | 888.669 | 1.46818
313.15 K, x2 = 0.3 | 883.39 | 1.46347
313.15 K, x2 = 0.3998 | 877.057 | 1.45797
313.15 K, x2 = 0.5011 | 869.116 | 1.45115
313.15 K, x2 = 0.599 | 859.715 | 1.44326
313.15 K, x2 = 0.6999 | 847.947 | 1.43367
313.15 K, x2 = 0.7998 | 833.106 | 1.42179
313.15 K, x2 = 0.8996 | 814.354 | 1.40723
313.15 K, x2 = 0.9494 | 802.87 | 1.39851
318.15 K, x2 = 0 | 892.847 | 1.47347
318.15 K, x2 = 0.0996 | 889.189 | 1.46999
318.15 K, x2 = 0.1998 | 884.706 | 1.46593
318.15 K, x2 = 0.3 | 879.336 | 1.46119
318.15 K, x2 = 0.3998 | 872.915 | 1.45564
318.15 K, x2 = 0.5011 | 864.882 | 1.44879
318.15 K, x2 = 0.599 | 855.394 | 1.44089
318.15 K, x2 = 0.6999 | 843.552 | 1.43125
318.15 K, x2 = 0.7998 | 828.652 | 1.41937
318.15 K, x2 = 0.8996 | 809.861 | 1.40479
318.15 K, x2 = 0.9494 | 798.377 | 1.39613
323.15 K, x2 = 0 | 889.089 | 1.47134
323.15 K, x2 = 0.0996 | 885.321 | 1.46783
323.15 K, x2 = 0.1998 | 880.732 | 1.46374
323.15 K, x2 = 0.3 | 875.264 | 1.45889
323.15 K, x2 = 0.3998 | 868.746 | 1.45336
323.15 K, x2 = 0.5011 | 860.611 | 1.44656
323.15 K, x2 = 0.599 | 851.029 | 1.43856
323.15 K, x2 = 0.6999 | 839.101 | 1.42888
323.15 K, x2 = 0.7998 | 824.126 | 1.41694
323.15 K, x2 = 0.8996 | 805.292 | 1.40233
323.15 K, x2 = 0.9494 | 793.784 | 1.39357
